Source: US5071835A, “Ribonucleotide reductase inhibitors” (Bio-Mega Inc., priority 1989, dated 1991)
Non-standard residues stand in square brackets, D forms with d. Residues, ends and D or L forms follow the SMILES beside them. No end group written: not given here. hPhe = N[C@@H](CCc1ccccc1)C(=O)O; NMeD = CN[C@@H](CC(=O)O)C(=O)O; NMeL = CN[C@@H](CC(C)C)C(=O)O; NMeV = CN[C@H](C(=O)O)C(C)C

Target: T1, human ribonucleotide reductase (hRR) (Homo sapiens, UniProt P23921)
T1 construct: Preparation of cell extract containing human ribonucleotide reductase (hRR); endogenous in cells; host or cells: HeLa cells (ATCC CCL 2.2); extract cleared with streptomycin sulphate, 50% ammonium sulphate cut, diafiltered
T1 sequence (P23921 1-792): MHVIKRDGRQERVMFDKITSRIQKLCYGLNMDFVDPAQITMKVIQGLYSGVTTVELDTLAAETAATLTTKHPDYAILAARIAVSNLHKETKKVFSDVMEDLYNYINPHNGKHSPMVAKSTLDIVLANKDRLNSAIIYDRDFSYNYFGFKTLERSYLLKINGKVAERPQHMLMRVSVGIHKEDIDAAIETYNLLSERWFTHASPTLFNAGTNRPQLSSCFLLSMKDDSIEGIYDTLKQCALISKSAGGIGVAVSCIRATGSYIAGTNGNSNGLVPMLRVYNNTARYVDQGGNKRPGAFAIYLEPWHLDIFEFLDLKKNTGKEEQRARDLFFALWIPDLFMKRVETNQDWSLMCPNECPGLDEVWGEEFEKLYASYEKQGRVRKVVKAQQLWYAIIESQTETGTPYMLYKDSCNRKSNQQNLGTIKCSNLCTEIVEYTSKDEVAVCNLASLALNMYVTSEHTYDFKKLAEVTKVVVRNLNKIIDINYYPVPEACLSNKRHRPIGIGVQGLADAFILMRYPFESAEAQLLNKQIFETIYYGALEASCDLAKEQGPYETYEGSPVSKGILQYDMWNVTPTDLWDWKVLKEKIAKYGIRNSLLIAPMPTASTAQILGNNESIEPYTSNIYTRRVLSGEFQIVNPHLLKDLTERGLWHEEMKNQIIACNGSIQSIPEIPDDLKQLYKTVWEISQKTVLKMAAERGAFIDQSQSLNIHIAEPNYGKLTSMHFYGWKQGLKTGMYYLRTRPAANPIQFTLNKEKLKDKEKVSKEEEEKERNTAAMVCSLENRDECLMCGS
Assay: Inhibition of Human Ribonucleotide Reductase Assay
Type: biochemical
Details: Hela cell extract; conversion of (14C)CDP to (14C)dCDP; text of Example 3; read-out: IC50
Method: Inhibition of Human Ribonucleotide Reductase Assay
(a) Cell line: Hela cells (ATCC CCL 2.2), human epitheloid carcinoma, cervix.
(b) Cell culture: Cells were incubated in a medium consisting of Iscove's Modified Dulbecco Medium, pH 7.2-7.4 (Gibco Canada Inc., Burlington, ON, Canada) supplemented with 10% by volume of fetal calf serum, heat inactivated (Gibco Canada Inc.), 1 millimolar (mM) of sodium pyruvate, 100 units/ml of penicillin G, 100 μg/ml of streptomycin and 2 mM of L-glutamine. The incubation was done in a 1 l spinner flask at 37° C. under a mixture of 5% CO2 in air. Cell-containing media (75% of culture volume) was withdrawn semicontinuously at 24-48 h intervals. Fresh media was added each time to replace withdrawn media. Final cell density at harvest was 1-2×10^6 cells/ml.
(c) Preparation of cell extract containing human ribonucleotide reductase (hRR)
The harvested culture media obtained above was subjected to low speed centrifugation. The resulting cell pellet was processed according to the following steps. (All steps were performed at 4° C. unless noted otherwise.) […]
(a) Standard Reaction Mixture […]
The activity of RR was quantitated by following the conversion of radiolabeled cytidine diphosphate to radiolabeled deoxycytidine diphosphate, i.e. (^14 C)CDP to (^14 C)dCDP. The amount of cell extract utilized in the assay was that which gave a linear response between enzyme concentration and CDP conversion (ca. 200 μg of protein per assay).
After addition of the cell extract, the assay mixture was incubated at 37° C. for 30 min. The reaction was stopped by immersing the vessel containing the assay mixture in boiling water for 4 min. Nucleotides in the supernatant were then converted to nucleosides by the addition of excess Crotalus adamenteus snake venom (ca. 20 μl of a preparation of 40 mg/ml of the venom in an aqueous solution of 14 mM tris(hydroxymethyl)aminomethane (pH 8.8) and 46.5 mM MgCl2), followed by incubating the resulting mixture for 60 min at 37° C. The enzymatic reaction was stopped by immersing the vessel containing the reaction mixture in boiling waster for 6 min. Thereafter, the mixture is centrifuged at 10,000 rpm on a clinical centrifuge for 5 min.
The resulting free nucleosides, cytidine (C) and deoxycytidine (dC), in the supernatant were separated by thin layer chromatography on polyethyleneimine-cellulose plates pretreated with boric acid. Elution of 5 μl samples was accomplished using a solution of ethanol/20 mM aqueous ammonium formate (1:1), pH 4.7. Quantitation of radiolabel migrating as C and dC was carried out using radioanalytical imaging equipment (AMBIS Systems Inc., San Diego, CA, USA). substrate conversion was calculated as: [formula]
A unit of ribonucleotide reductase activity is defined as that amount which reduces one nmole of CDP/minute under the conditions described above. Activity was calculated from substrate conversion using the following relationship: [formula]
The conversion factor for the Hela assay was 0.108. Specific activity was expressed as units/mg of protein in the incubation mixture.
The peptides of formula 1 were tested at a minimum of three concentrations. IC50 's were estimated from graphs plotting the results for each peptide, the IC50 being the concentration of the peptide in micromoles (μM) producing 50% of the maximal inhibition of the enzyme.

With “Ac-FTLDADF [Example 2, AcPhe-Thr-Leu-Asp-Ala-Asp-Phe-OH]” the IC50 was 38 µM.

Same assay, conditions: Hela cell extract; table of Example 4; read-out: IC50

First: Ac-NSFTLDADF-OH [Ac--Asn--Ser--Phe--Thr--Leu--Asp--Ala--Asp--Phe--OH]
Second: Ac-TENSFTLDADF [AcThr--Glu--Asn--Ser--Phe--Thr--Leu--Asp--Ala--Asp--Phe--OH]
The IC50 of the first is 2.5-fold lower: 33 µM for the first, 83 µM for the second.

First: H-NSTENSFTLDADF-OH [H--Asn--Ser--Thr--Glu--Asn--Ser--Phe--Thr--Leu--Asp--Ala--Asp--Phe--OH]
Second: H-TENSFTLDADF-OH [H--Thr--Glu--Asn--Ser--Phe--Thr--Leu--Asp--Ala--Asp--Phe--OH]
The IC50 of the first is 1.5-fold lower: 62 µM for the first, 95 µM for the second. The first is the more potent here.

Compound “H-VISNSTENSFTLDADF-OH [H--Val--Ile--Ser--Asn--Ser--Thr--Glu--Asn--Ser--Phe--Thr--Leu--Asp--Ala--Asp--Phe--OH]” has an IC50 of 49 µM.

Same assay, conditions: inhibition of human RR assay; list after the table; unit μM; read-out: IC50 (shown in parenthesis)

`CC(=O)N[C@@H](Cc1ccccc1)C(=O)N(C)[C@H](C(=O)N[C@@H](CC(C)C)C(=O)N[C@@H](CC(=O)O)C(=O)N[C@@H](C)C(=O)N[C@@H](CC(=O)O)C(=O)N[C@@H](Cc1ccccc1)C(=O)O)C(C)C` [AcPhe-N-Me-Val-Leu-Asp-Ala-Asp-Phe-OH] (Ac-F[NMeV]LDADF-OH) and `CC(=O)N[C@@H](Cc1ccccc1)C(=O)N[C@H](C(=O)N[C@@H](CC(C)C)C(=O)N[C@@H](CC(=O)N(C)C)C(=O)N[C@@H](C)C(=O)N[C@@H](CC(=O)O)C(=O)N[C@@H](Cc1ccccc1)C(=O)O)[C@@H](C)O` [AcPhe-Thr-Leu-Asp(NMe2)-Ala-Asp-Phe-OH] (Ac-FTLD(NMe2)ADF-OH) are within 1.5-fold of each other in IC50: 48 µM for the first, 58 µM for the second.

First: CC(=O)N[C@@H](Cc1ccccc1)C(=O)N[C@H](C(=O)N[C@@H](CC(C)C)C(=O)N[C@@H](CC(=O)O)C(=O)N[C@@H](C)C(=O)N[C@@H](CC(=O)O)C(=O)N[C@@H](CCc1ccccc1)C(=O)O)[C@@H](C)O [AcPhe-Thr-Leu-Asp-Ala-Asp-homoPhe-OH] (Ac-FTLDAD[hPhe]-OH)
Second: CC(=O)N[C@@H](Cc1ccccc1)C(=O)N[C@H](C(=O)N[C@@H](CC(C)C)C(=O)N[C@@H](CC(=O)O)C(=O)N[C@@H](C)C(=O)N[C@H](CC(=O)O)C(=O)N[C@@H](Cc1ccccc1)C(=O)O)[C@@H](C)O [AcPhe-Thr-Leu-Asp-Ala-D-Asp-Phe-OH] (Ac-FTLDA[dD]F-OH)
The IC50 of the first is 4.8-fold lower: 58 µM for the first, 280 µM for the second. The first is the more potent here.

Going from `CC(=O)N[C@@H](Cc1ccccc1)C(=O)N[C@H](C(=O)N[C@@H](CC(C)C)C(=O)N[C@@H](CC(=O)O)C(=O)N[C@@H](C)C(=O)N(C)[C@@H](CC(=O)O)C(=O)N[C@@H](Cc1ccccc1)C(=O)O)[C@@H](C)O` [AcPhe-Thr-Leu-Asp-Ala-N-Me-Asp-Phe-OH] (Ac-FTLDA[NMeD]F-OH) to `CC(=O)N[C@@H](Cc1ccccc1)C(=O)N[C@H](C(=O)N[C@@H](CC(C)C)C(=O)N[C@@H](CC(=O)O)C(=O)N[C@H](C)C(=O)N[C@@H](CC(=O)O)C(=O)N[C@@H](Cc1ccccc1)C(=O)O)[C@@H](C)O` [AcPhe-Thr-Leu-Asp-D-Ala-Asp-Phe-OH] (Ac-FTLD[dA]DF-OH), the IC50 rises from 46 µM to 460 µM (10-fold).

First: CC(=O)N[C@@H](Cc1ccccc1)C(=O)N[C@H](C(=O)N[C@@H](CC(C)C)C(=O)N[C@H](CC(=O)O)C(=O)N[C@@H](C)C(=O)N[C@@H](CC(=O)O)C(=O)N[C@@H](Cc1ccccc1)C(=O)O)[C@@H](C)O [AcPhe-Thr-Leu-D-Asp-Ala-Asp-Phe-OH] (Ac-FTL[dD]ADF-OH)
Second: CC(=O)N[C@@H](Cc1ccccc1)C(=O)N[C@H](C(=O)N(C)[C@@H](CC(C)C)C(=O)N[C@@H](CC(=O)O)C(=O)N[C@@H](C)C(=O)N[C@@H](CC(=O)O)C(=O)N[C@@H](Cc1ccccc1)C(=O)O)[C@@H](C)O [AcPhe-Thr-N-Me-Leu-Asp-Ala-Asp-Phe-OH] (Ac-FT[NMeL]DADF-OH)
The IC50 of the first is 8.7-fold higher: 200 µM for the first, 23 µM for the second. The second is the more potent here.

Compared with “Ac-FTFNEDF [AcPhe-Thr-Phe-Asn-Glu-Asp-Phe-OH]”, “Ac-FTLDEDF [AcPhe-Thr-Leu-Asp-Glu-Asp-Phe-OH]” is 5.4-fold lower in IC50: 150 µM for the first, 28 µM for the second.

First: Ac-FTLDVDF [AcPhe-Thr-Leu-Asp-Val-Asp-Phe-OH]
Second: Ac-FTLFADF [AcPhe-Thr-Leu-Phe-Ala-Asp-Phe-OH]
The IC50 of the first is 1.9-fold lower: 39 µM for the first, 73 µM for the second.

First: Ac-FTLGADF [AcPhe-Thr-Leu-Gly-Ala-Asp-Phe-OH]
Second: Ac-FTLNADF [AcPhe-Thr-Leu-Asn-Ala-Asp-Phe-OH]
The IC50 of the first is 4.8-fold higher: 150 µM for the first, 31 µM for the second.

First: Ac-FTLQADF [AcPhe-Thr-Leu-Gln-Ala-Asp-Phe-OH]
Second: H-PTENSFTLDADF-OH [H-Pro-Thr-Glu-Asn-Ser-Phe-Thr-Leu-Asp-Ala-Asp-Phe-OH]
The IC50 of the first is 2.9-fold higher: 120 µM for the first, 41 µM for the second. The second is the more potent here.

“H-SPTENSFTLDADF-OH [H-Ser-Pro-Thr-Glu-Asn-Ser-Phe-Thr-Leu-Asp-Ala-Asp-Phe-OH]” and “H-SSPTENSFTLDADF-OH [H-Ser-Ser-Pro-Thr-Glu-Asn-Ser-Phe-Thr-Leu-Asp-Ala-Asp-Phe-OH]” are within 1.5-fold of each other in IC50: 29 µM for the first, 26 µM for the second.
